From ChEMBL document CHEMBL1127148, “The squalestatins: novel inhibitors of squalene synthase. The optimal C1 chain-length requirements” (Bioorg Med Chem Lett, 1993)

Target: T1, Squalene synthase (Rattus norvegicus, UniProt Q02769)
T1 sequence (Q02769 whole entry): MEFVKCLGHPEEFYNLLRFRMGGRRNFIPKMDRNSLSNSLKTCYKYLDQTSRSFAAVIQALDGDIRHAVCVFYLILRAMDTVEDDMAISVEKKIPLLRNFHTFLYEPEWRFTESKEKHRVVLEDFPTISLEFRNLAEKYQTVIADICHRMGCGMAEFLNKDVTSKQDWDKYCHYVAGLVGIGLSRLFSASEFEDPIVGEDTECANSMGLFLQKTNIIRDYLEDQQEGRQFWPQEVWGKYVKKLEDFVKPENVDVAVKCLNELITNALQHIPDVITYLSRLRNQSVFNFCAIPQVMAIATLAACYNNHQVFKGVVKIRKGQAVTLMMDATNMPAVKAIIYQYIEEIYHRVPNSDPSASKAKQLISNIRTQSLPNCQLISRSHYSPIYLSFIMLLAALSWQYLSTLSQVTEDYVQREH
Test: Tested in vitro for the inhibition of Squalene synthase activity, measured using juvenile male rat liver microsomes
Design: species or system Microsome

Compound	IC50 [nM]
CC[C@H](C)C[C@H](C)CCC(=O)O[C@@H]1[C@@H](O)[C@@]2(CCC(C)C(=O)[C@@H](C)Cc3ccccc3)O[C@H](C(=O)O)[C@@](O)(C(=O)O)[C@]1(C(=O)O)O2 (single isomer, unassigned; isomer 2)	130
CC[C@H](C)C[C@H](C)CCC(=O)O[C@@H]1[C@@H](O)[C@@]2(CCC(C)C(=O)[C@@H](C)Cc3ccccc3)O[C@H](C(=O)O)[C@@](O)(C(=O)O)[C@]1(C(=O)O)O2 (stereo in doubt)	16
CC[C@H](C)C[C@H](C)CCC(=O)O[C@@H]1[C@@H](O)[C@@]2(C/C=C(\C)[C@H](O)[C@@H](C)Cc3ccccc3)O[C@H](C(=O)O)[C@@](O)(C(=O)O)[C@]1(C(=O)O)O2	17
C=C(CC[C@]12O[C@H](C(=O)O)[C@@](O)(C(=O)O)[C@](C(=O)O)(O1)[C@H](OC(=O)CC[C@@H](C)C[C@@H](C)CC)[C@H]2O)[C@H](O)[C@@H](C)Cc1ccccc1	2
CC[C@H](C)C[C@H](C)CCC(=O)O[C@@H]1[C@@H](O)[C@@]2(CCC(=O)[C@H](O)[C@@H](C)Cc3ccccc3)O[C@H](C(=O)O)[C@@](O)(C(=O)O)[C@]1(C(=O)O)O2	5
CC[C@H](C)C[C@H](C)CCC(=O)O[C@@H]1[C@@H](O)[C@@]2(CCC(O)[C@H](O)[C@@H](C)Cc3ccccc3)O[C@H](C(=O)O)[C@@](O)(C(=O)O)[C@]1(C(=O)O)O2 (stereo partly drawn)	4
CC[C@H](C)C[C@H](C)CCC(=O)O[C@@H]1[C@@H](O)[C@@]2(CC/C(C)=C/[C@@H](C)Cc3ccccc3)O[C@H](C(=O)O)[C@@](O)(C(=O)O)[C@]1(C(=O)O)O2	63

Target: T1, Squalene synthase
Test: Inhibition of Squalene synthase activity in juvenile male rat liver microsomes
Design: species or system Microsome

Compound	IC50 [nM]
C=C(CC[C@]12O[C@H](C(=O)O)[C@@](O)(C(=O)O)[C@](C(=O)O)(O1)[C@H](OC(=O)/C=C/[C@@H](C)C[C@@H](C)CC)[C@H]2O)[C@H](O)[C@@H](C)Cc1ccccc1	5
CC[C@H](C)C[C@H](C)CCC(=O)O[C@@H]1[C@@H](O)[C@@]2(CCC(C)=O)O[C@H](C(=O)O)[C@@](O)(C(=O)O)[C@]1(C(=O)O)O2	470
CC[C@H](C)C[C@H](C)CCC(=O)O[C@@H]1[C@@H](O)[C@@]2(CCCC(=O)CCCc3ccccc3)O[C@H](C(=O)O)[C@@](O)(C(=O)O)[C@]1(C(=O)O)O2	152
CCCCCCC(=O)CCC[C@]12O[C@H](C(=O)O)[C@@](O)(C(=O)O)[C@](C(=O)O)(O1)[C@H](OC(=O)CC[C@@H](C)C[C@@H](C)CC)[C@H]2O	> 500
CC[C@H](C)C[C@H](C)CCC(=O)O[C@@H]1[C@@H](O)[C@@]2(CCO)O[C@H](C(=O)O)[C@@](O)(C(=O)O)[C@]1(C(=O)O)O2	> 500
CC[C@H](C)C[C@H](C)CCC(=O)O[C@@H]1[C@@H](O)[C@@]2(CCCC(=O)C(C)Cc3ccccc3)O[C@H](C(=O)O)[C@@](O)(C(=O)O)[C@]1(C(=O)O)O2 (stereo partly drawn)	29
CCCC(=O)CCC[C@]12O[C@H](C(=O)O)[C@@](O)(C(=O)O)[C@](C(=O)O)(O1)[C@H](OC(=O)CC[C@@H](C)C[C@@H](C)CC)[C@H]2O	> 500
CC[C@H](C)C[C@H](C)CCC(=O)O[C@@H]1[C@@H](O)[C@@]2(CCCC(=O)Cc3ccccc3)O[C@H](C(=O)O)[C@@](O)(C(=O)O)[C@]1(C(=O)O)O2	> 500
CC[C@H](C)C[C@H](C)CCC(=O)O[C@@H]1[C@@H](O)[C@@]2(CCCC(=O)CCc3ccccc3)O[C@H](C(=O)O)[C@@](O)(C(=O)O)[C@]1(C(=O)O)O2	56
CC[C@H](C)C[C@H](C)CCC(=O)O[C@@H]1[C@@H](O)[C@@]2(CCC(C)C(=O)CCc3ccccc3)O[C@H](C(=O)O)[C@@](O)(C(=O)O)[C@]1(C(=O)O)O2 (stereo partly drawn)	48

Tested on: Rattus norvegicus
Test: Tested for daily dose at which compound shows 50% reduction in serum cholesterol levels after oral administration
Type: functional

Compound	Dose [mg/kg]
C=C(CC[C@]12O[C@H](C(=O)O)[C@@](O)(C(=O)O)[C@](C(=O)O)(O1)[C@H](OC(=O)/C=C/[C@@H](C)C[C@@H](C)CC)[C@H]2O)[C@H](OC(C)=O)[C@@H](C)Cc1ccccc1	10
